Assay [1] relates to CC chemokine receptor-like 2 (CCRL2). Conditions: cited from earlier work. The text has this: In this study, we focused on CXCR7 because of its abundant expression in the heart and its unique character as a 7TMR. […] As a 7TMR, the β1-adrenergic receptor plays critical roles in the heart[21],[22]; however, its expression level was tenfold lower than that of Cxcr7.
The subject of assay [2] is CC chemokine receptor 2-positive macrophages. Conditions: pressure-overload heart failure model; cited from earlier work. The text has this: (§1) Recently, the importance of chemokines and their receptors in cardiovascular diseases has been pointed out.
The test system of assay [3] is type 1 angiotensin II receptor. The note with it: cited from earlier work. The text has this: There are many seven-transmembrane receptors (7TMRs), such as adrenergic receptors and angiotensin II receptors, in the heart, and they play various critical roles in cardiac function and morphology[1],[2]. […] The roles of ACKRs are largely unknown, and only ACKR3, also known as CXC chemokine receptor 7 (CXCR7), has be ... || There are numerous reports on biased agonists. Biased agonism occurs when two ligands share one receptor, but transmit different signals. […] However, there are a few natural β-arrestin-biased agonists and very few 7TMRs that activate intracellular signaling only through β-arr ...

The next assay relates to cardiac hypertrophy. Conditions: cited from earlier work. The text has this:
There are numerous reports on biased agonists. Biased agonism occurs when two ligands share one receptor, but transmit different signals. […] However, there are a few natural β-arrestin-biased agonists and very few 7TMRs that activate intracellular signaling only through β-arr ...

The next assay deals with T1, human CXCR7 (Homo sapiens, UniProt P25106).
T1 construct: expressed in transfected cells; host or cells: HEK293 cells (ATCC CRL-11268)
T1 sequence (P25106 whole entry): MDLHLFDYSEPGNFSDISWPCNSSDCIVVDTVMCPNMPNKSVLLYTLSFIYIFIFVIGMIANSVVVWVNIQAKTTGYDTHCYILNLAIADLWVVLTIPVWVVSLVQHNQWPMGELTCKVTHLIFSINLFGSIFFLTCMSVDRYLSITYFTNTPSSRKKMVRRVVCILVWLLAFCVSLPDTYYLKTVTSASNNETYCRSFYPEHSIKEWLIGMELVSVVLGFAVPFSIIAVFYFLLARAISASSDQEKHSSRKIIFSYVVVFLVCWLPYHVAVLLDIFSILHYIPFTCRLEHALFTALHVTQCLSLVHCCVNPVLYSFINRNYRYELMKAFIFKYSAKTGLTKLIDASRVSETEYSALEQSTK
T1 sequence (P32121 whole entry partner): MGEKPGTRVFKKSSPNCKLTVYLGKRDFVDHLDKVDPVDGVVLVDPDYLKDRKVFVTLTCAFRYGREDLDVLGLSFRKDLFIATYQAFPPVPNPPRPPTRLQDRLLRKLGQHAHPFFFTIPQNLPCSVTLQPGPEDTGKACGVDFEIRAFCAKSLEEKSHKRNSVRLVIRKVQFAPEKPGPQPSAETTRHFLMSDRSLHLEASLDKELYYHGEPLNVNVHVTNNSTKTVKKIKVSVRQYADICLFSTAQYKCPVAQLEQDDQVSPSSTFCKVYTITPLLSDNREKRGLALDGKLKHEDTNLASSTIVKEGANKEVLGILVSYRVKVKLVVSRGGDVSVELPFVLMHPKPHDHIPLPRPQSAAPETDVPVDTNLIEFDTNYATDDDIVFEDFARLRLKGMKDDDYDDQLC
Put plainly: β-arrestin recruitment assay of CXCR7 (luminescence, HEK293). The assay is classed as cell-based. The note with it: HEK293 cells transfected with human β-arrestin-2-ω and human CXCR7-α, 37 °C for 90 min, then Gal-Screen 25 °C 90 min, n = 3 independent, read-out: EC50 for coupling of CXCR7 with β-arrestin (β-arrestin recruitment).

The test system of assay [4] is ERK (via rat CXCR7 expression plasmid). Put plainly: ERK phosphorylation (pERK/tERK immunoblot) in CXCR7-transfected HEK293 cells. The assay is classed as cell-based, HEK293 cells (human embryonic kidney). Conditions: CXCL12 100 nM. On the procedure: HEK293 cells (ATCC CRL-11268) were used for the β-arrestin recruitment assay, as previously described. In brief, HEK293 cells were transfected with human β-arrestin-2-ω and human CXCR7-α. […] Luminescence was measured in an ARVO X3 plate reader (PerkinElmer, Waltham, MA, USA). In addition, HEK293 cells were transfected with a rat CXCR7 expression plasmid using Lipofectamine 3000 (Thermo Fisher Scientific). The CXCR7 expression plasmid was synthesized by amplifying a rat Cxcr7 mRNA sequence (RefSeq: NM_053352.1) with a FLAG tag (forward primer: 5′-[…]-3′, reverse primer: 5′-[…]-3′) from cDNA prepared from total RNA isolated from neonatal rat heart and inserting it in pShuttle-CMV (#16403, Addgene, Watertown, MA, USA). The cells were cultured for 36 h.
Western blotting was performed as previously described. Tissues and cells were homogenized in ice-cold RIPA buffer containing protease inhibitor (cOmplete Protease Inhibitor Cocktail, Merck) and phosphatase inhibitor (PhosSTOP, Sigma). Supernatants were collected after centrifugation and mixed with an equal amount of loading buffer (125 mM Tris–HCl pH 6.8, 30% glycerol, 10% SDS, and 0.6 M DTT). […] Signals were detected with the Pierce ECL Prime system (GE Healthcare) in a LAS4000 instrument (GE Healthcare). Band densities were analyzed using the ImageJ software (National Institutes of Health, Bethesda, MD, USA).

The subject of the next assay is CXCR4. The note with it: via CXCR4; cited from earlier work.
Excerpt: as §1

The next assay relates to adrenergic receptors. Conditions: cited from earlier work. The text has this:
(§2) There are many seven-transmembrane receptors (7TMRs), such as adrenergic receptors and angiotensin II receptors, in the heart, and they play various critical roles in cardiac function and morphology[1],[2]. […] The roles of ACKRs are largely unknown, and only ACKR3, also known as CXC chemokine receptor 7 (CXCR7), has be ...

The test system of a further assay is heart failure patients. The note with it: cited from earlier work.
Excerpt: as §2

The subject of another assay is ERK. Put plainly: ERK phosphorylation (pERK/tERK immunoblot) in neonatal rat cardiomyocytes (NRCMs). The assay is classed as cell-based, rat (Wistar). Conditions: 30-min pretreatment with barbadin (50 M [sic]), then 10 min TC14012 (printed 3 M), n = 4. As for the experimental part:
NRCMs and neonatal rat fibroblasts were prepared from 1-day-old Wistar rats (Takasugi Experimental Animal Supply Co., Saitama, Japan), as previously described. Briefly, cardiac cells were dispersed by digestion with collagenase type II (Worthington Biochemical, Lakewood, NJ, USA) and incubated at 37 °C for 80 min to divide the supernatant cells, which are rich in cardiomyocytes, and the attached cells, which are rich in cardiac fibroblasts. The supernatant NRCMs were cultured on gelatin-coated dishes at 37 °C in Dulbecco’s modified Eagle’s medium (DMEM; Nacalai Tesque, Kyoto, Japan) supplemented with 10% fetal calf serum for 36 h and confirmed on the basis of beating activity. After 12 h of starvation, the NRCMs were treated with TC14012 (Tocris Bioscience, Bristol, UK). Attached cells rich in cardiac fibroblasts were subcultured three times to increase their purity. We added vehicle (DMSO) or barbadin (MedChemExpress, New Jersey, USA) 30 min before stimulation.
Western blotting was performed as previously described. […] Signals were detected with the Pierce ECL Prime system (GE Healthcare) in a LAS4000 instrument (GE Healthcare). Band densities were analyzed using the ImageJ software (National Institutes of Health, Bethesda, MD, USA).
(Immunoblotting shows a protein as a band on a membrane.)

“Also recorded” adds a separate entry of the source.

Procedure for human CXCR7: HEK293 cells (ATCC CRL-11268) were used for the β-arrestin recruitment assay, as previously described[52]. In brief, HEK293 cells were transfected with human β-arrestin-2-ω and human CXCR7-α. […] Luminescence was measured in an ARVO X3 plate reader (PerkinElmer, Waltham, MA, USA).

Regarding chemerin: ligand of CCRL2, the “binding to CCRL2” value in assay [1] is on record as “it does not bind to chemokines, but to chemerin”.

For the compound “CC chemokine ligand 2: chemokine that induced accumulation of CC chemokine receptor 2-positive macrophages”, the “accumulation of CCR2-positive macrophages” value in assay [2] is given as “induced the accumulation of CC chemokine receptor 2-positive macrophages”.

With “angiotensin-(1-7): a metabolite of angiotensin II”, the “G protein versus β-arrestin activation compared with angiotensin II” value in assay [3] is “binds to type 1 angiotensin II receptor, but fails to activate G proteins, and selectively promotes β-arrestin activation compared with angiotensin II”. In addition, the cardiac hypertrophy entry with cardiac hypertrophy is listed as “attenuates cardiac hypertrophy”.

In the case of `N=C(N)NCCC[C@H](NC(=O)[C@@H]1CSSC[C@H](NC(=O)[C@H](Cc2ccc3ccccc3c2)NC(=O)[C@H](CCCNC(=N)N)NC(=O)[C@@H](N)CCCNC(=N)N)C(=O)N[C@@H](Cc2ccc(O)cc2)C(=O)N[C@@H](CCCNC(N)=O)C(=O)N[C@@H](CCCCN)C(=O)N[C@H](CCCNC(N)=O)C(=O)N2CCC[C@H]2C(=O)N[C@@H](Cc2ccc(O)cc2)C(=O)N[C@@H](CCCNC(=N)N)C(=O)N[C@@H](CCCNC(N)=O)C(=O)N1)C(N)=O` [TC14012], at human CXCR7, the 50% effective concentration (EC50) came to 47.4 nM.

In the case of “CXCL12: a natural ligand of CXCR4 and CXCR7”, in [4] (HEK293 cells with CXCR7 expression plasmid, n = 4), the “time of peak ERK activity after stimulation” value amounted to 5 min. In addition, the “ERK activation (pERK/tERK)” value in [4] (HEK293 cells, rat CXCR7 expression plasmid (various amounts), n = 3) is on record as “activated ERK in a CXCR7 expression plasmid-dose-dependent manner”. The “protection of the heart from hypoxia” value with CXCR4 is recorded as “protects the heart from hypoxia”.

In the case of `COc1ccccc1OCCNCC(O)COc1cccc2[nH]c3ccccc3c12` (centres unmarked) [carvedilol], in the assay on adrenergic receptors, the “adrenergic receptor blockade and β-arrestin signaling” value is given as “not only blocks adrenergic receptors, but also activates cardioprotective signals, including ERK, through β-arrestin”. For the same compound, the “effectiveness in heart failure patients” value in the assay with heart failure patients is on record as “very effective for the treatment of heart failure patients”.

For the compound `Nn1cnc2scc(-c3ccc(Cc4ccccc4)cc3)c2c1=O` [barbadin], in the assay with ERK, the “inhibition of TC14012-induced ERK activation” value is “abolished TC14012-induced ERK activation; also recorded: completely suppressed”.

As a reminder, the EC50 is the concentration at which the effect is half-maximal.

(Values after paper PMC7873251, “CXCR7 ameliorates myocardial infarction as a β-arrestin-biased receptor” (Scientific Reports, 2021).)
